Reference: patent US20200017495A1, “NOVEL HETEROCYCLIC COMPOUNDS AND THEIR USE IN PREVENTING OR TREATING BACTERIAL INFECTIONS” (priority 2017, published 2020)

Columns and labels:
Type in all cases: cell-based
[1] = tested on: Proteus mirabilis (PMI) isolates; assay: microbe, parasite or virus in culture
How it was run: (§1)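 Antibacterial MICs in combination were determined at every compound concentration tested, alongside compound MICs alone. Bacteria grew in cation-adjusted Mueller-Hinton broth starting from 5.10^5 CFU/mL, incubated at 35° C for 16-20 h, and endpoints were the lowest concentrations with no visible growth.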

[2] = tested on: Providencia stuartii (PST) isolates; assay: MIC of compounds alone and combined with antibacterials, broth microdilution (CLSI)
How it was run: (§2)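 Growth inhibition was scored by eye after 16-20 h at 35° C in air, using cation-adjusted Mueller-Hinton broth seeded with 5.10^5 CFU/mL log-phase cells. Single agents gave compound MICs; paired with antibiotics, the antibiotic MIC was taken at every compound concentration.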

[3] = tested on: Salmonella typhimurium (STY) isolates; assay: as above; details: for MIC ATB in combination: STY S3371
How it was run: as §2

[4] = tested on: Citrobacter koseri (CKR) isolates; assay: as above
How it was run: as §1

[5] = tested on: Enterobacter aerogenes (EAE) isolates; assay: as above
How it was run: as §1

C=CC1=C(C(=O)O)N2C(=O)[C@@H](NC(=O)/C(=N\OCC(=O)O)c3csc(N)n3)[C@H]2SC1 [FIX, Cefixime]
512 µg/mL: MIC ([2]; strain PST UFR235, compound alone) | MIC ([2]; strain PST UFR235, genotype VEB-1)
<0.25 µg/mL: MIC ATB in combination ([1]; PMI UFR82, AF2 @ 8 μg/mL) | MIC ATB in combination ([1]; PMI UFR82, AF3 @ 8 μg/mL) | MIC ATB in combination ([1]; PMI UFR126, AF2 @ 8 μg/mL) | MIC ATB in combination ([1]; PMI UFR126, AF3 @ 8 μg/mL) | MIC ATB in combination ([1]; PMI UFR127, AF2 @ 8 μg/mL) | MIC ATB in combination ([1]; PMI UFR127, AF3 @ 8 μg/mL) | MIC ATB in combination ([1]; PMI UFR128, AF2 @ 8 μg/mL) | MIC ATB in combination ([1]; PMI UFR128, AF3 @ 8 μg/mL) | MIC ATB in combination ([1]; PMI UFR129, AF2 @ 8 μg/mL) | MIC ATB in combination ([1]; PMI UFR129, AF3 @ 8 μg/mL) | MIC ATB in combination ([1]; PMI UFR130, AF2 @ 8 μg/mL) | MIC ATB in combination ([1]; PMI UFR130, AF3 @ 8 μg/mL) | MIC ATB in combination ([1]; PMI UFR133, AF2 @ 8 μg/mL) | MIC ATB in combination ([1]; PMI UFR133, AF3 @ 8 μg/mL) | MIC ATB in combination ([1]; PMI UFR237, AF2 @ 8 μg/mL) | MIC ATB in combination ([1]; PMI UFR237, AF3 @ 8 μg/mL) | MIC ATB in combination ([1]; strain PMI UFR131, with AF2 @ 8 μg/mL) | MIC ATB in combination ([1]; strain PMI UFR131, with AF3 @ 8 μg/mL) | MIC ATB in combination ([1]; strain PMI UFR132, with AF2 @ 8 μg/mL) | MIC ATB in combination ([1]; strain PMI UFR132, with AF3 @ 8 μg/mL) | MIC ATB in combination ([2]; PST UFR120, AF2 @ 8 μg/mL) | MIC ATB in combination ([2]; PST UFR120, AF3 @ 8 μg/mL) | MIC ATB in combination ([2]; PST UFR121, AF2 @ 8 μg/mL) | MIC ATB in combination ([2]; PST UFR121, AF3 @ 8 μg/mL) | MIC ATB in combination ([2]; PST UFR122, AF2 @ 8 μg/mL) | MIC ATB in combination ([2]; PST UFR122, AF3 @ 8 μg/mL) | MIC ATB in combination ([2]; PST UFR123, AF2 @ 8 μg/mL) | MIC ATB in combination ([2]; PST UFR123, AF3 @ 8 μg/mL) | MIC ATB in combination ([2]; PST UFR124, AF2 @ 8 μg/mL) | MIC ATB in combination ([2]; PST UFR124, AF3 @ 8 μg/mL) | MIC ATB in combination ([2]; PST UFR125, AF2 @ 8 μg/mL) | MIC ATB in combination ([2]; PST UFR125, AF3 @ 8 μg/mL) | MIC ATB in combination ([3]; AF2 @ 8 μg/mL) | MIC ATB in combination ([3]; AF3 @ 8 μg/mL) | MIC ATB in combination ([4]; CKO UFR149, AF2 @ 8 μg/mL) | MIC ATB in combination ([4]; CKO UFR149, AF3 @ 8 μg/mL) | MIC ATB in combination ([5]; EAE 49469, AF2 @ 8 μg/mL) | MIC ATB in combination ([5]; EAE 49469, AF3 @ 8 μg/mL) | MIC ATB in combination ([5]; EAE 200261, AF3 @ 8 μg/mL) | MIC ATB in combination ([5]; EAE UFR201, AF2 @ 8 μg/mL) | MIC ATB in combination ([5]; EAE UFR201, AF3 @ 8 μg/mL) | MIC ATB in combination ([5]; EAE UFR207, AF2 @ 8 μg/mL) | MIC ATB in combination ([5]; EAE UFR207, AF3 @ 8 μg/mL)
16 µg/mL: MIC ATB in combination ([5]; EAE UFR199, CLA @ 4 μg/mL) | MIC ATB in combination ([5]; EAE UFR202, AF2 @ 8 μg/mL) | MIC ATB in combination ([5]; EAE UFR213, AF2 @ 8 μg/mL)
4 µg/mL: MIC ATB in combination ([1]; PMI UFR82, CLA @ 4 μg/mL) | MIC ([2]; strain PST UFR95, genotype TEM-24) | MIC ATB in combination ([5]; EAE UFR202, AF3 @ 8 μg/mL)
0.5 µg/mL: MIC ATB in combination ([1]; PMI UFR128, CLA @ 4 μg/mL) | MIC ([1]; strain PMI UFR120, genotype TEM-1, SHV-11, CTX-M-14) | MIC ([1]; strain PMI UFR125, genotype CTX-M-71) | MIC ([2]; strain PST UFR94, genotype CTX-M-14) | MIC ATB in combination ([4]; CKO ROU, AF2 @ 8 μg/mL) | MIC ([4]; strain CKO UFR149, genotype OXA-48) | MIC ATB in combination ([5]; EAE UFR199, AF2 @ 8 μg/mL)
8 µg/mL: MIC ATB in combination ([1]; PMI UFR130, CLA @ 4 μg/mL) | MIC ([1]; strain PMI UFR82, genotype CMY-2) | MIC ([1]; strain PMI UFR130, genotype CMY-2) | MIC ATB in combination ([2]; PST UFR95, CLA @ 4 μg/mL) | MIC ATB in combination ([2]; PST UFR235, CLA @ 4 μg/mL) | MIC ATB in combination ([5]; EAE 200261, AF2 @ 8 μg/mL)
1024 µg/mL: MIC ([1]; strain PMI UFR126, compound alone) | MIC ([1]; strain PMI UFR126, genotype TEM-2, PER-1)
32 µg/mL: MIC ATB in combination ([2]; strain PST UFR98, with AF3 @ 8 μg/mL)
128 µg/mL: MIC ([1]; strain PMI UFR121, genotype TEM-1, TEM-52) | MIC ([1]; strain PMI UFR123, genotype CTX-M-1)
2 µg/mL: MIC ATB in combination ([2]; PST UFR94, CLA @ 4 μg/mL) | MIC ATB in combination ([4]; CKO ROU, CLA @ 4 μg/mL) | MIC ATB in combination ([4]; CKO UFR150, AF2 @ 8 μg/mL) | MIC ATB in combination ([4]; CKO UFR150, AF3 @ 8 μg/mL) | MIC ATB in combination ([4]; CKO UFR150, CLA @ 4 μg/mL) | MIC ([4]; strain CKO UFR150, genotype TEM-1, OXA-48)
<=0.25 μg/mL: MIC ATB in combination ([1]; PMI UFR126, CLA @ 4 μg/mL) | MIC ATB in combination ([1]; PMI UFR127, CLA @ 4 μg/mL) | MIC ATB in combination ([1]; PMI UFR129, CLA @ 4 μg/mL) | MIC ATB in combination ([1]; PMI UFR133, CLA @ 4 μg/mL) | MIC ATB in combination ([1]; PMI UFR237, CLA @ 4 μg/mL) | MIC ([1]; strain PMI UFR133, genotype OXA-23) | MIC ATB in combination ([2]; PST UFR94, AF2 @ 8 μg/mL) | MIC ATB in combination ([2]; PST UFR94, AF3 @ 8 μg/mL) | MIC ATB in combination ([2]; PST UFR95, AF2 @ 8 μg/mL) | MIC ATB in combination ([2]; PST UFR95, AF3 @ 8 μg/mL) | MIC ATB in combination ([2]; PST UFR120, CLA @ 4 μg/mL) | MIC ATB in combination ([2]; PST UFR121, CLA @ 4 μg/mL) | MIC ATB in combination ([2]; PST UFR122, CLA @ 4 μg/mL) | MIC ATB in combination ([2]; PST UFR123, CLA @ 4 μg/mL) | MIC ATB in combination ([2]; PST UFR124, CLA @ 4 μg/mL) | MIC ATB in combination ([2]; PST UFR125, CLA @ 4 μg/mL) | MIC ATB in combination ([2]; PST UFR235, AF2 @ 8 μg/mL) | MIC ATB in combination ([2]; PST UFR235, AF3 @ 8 μg/mL) | MIC ATB in combination ([3]; CLA @ 4 μg/mL) | MIC ([3]; strain STY S3371, genotype OXA-1) | MIC ATB in combination ([5]; EAE UFR199, AF3 @ 8 μg/mL) | MIC ATB in combination ([5]; EAE UFR201, CLA @ 4 μg/mL) | MIC ATB in combination ([5]; EAE UFR213, AF3 @ 8 μg/mL)
64 µg/mL: MIC ATB in combination ([2]; strain PST UFR98, with AF2 @ 8 μg/mL)
>1024 µg/mL: MIC ([5]; strain EAE UFR199, compound alone) | MIC ([5]; strain EAE UFR199, genotype TEM-1b, SHV-12, KPC-2, OXA-9)
1 µg/mL: MIC ([1]; strain PMI UFR122, genotype TEM-1, CTX-M-15) | MIC ATB in combination ([4]; CKO ROU, AF3 @ 8 μg/mL) | MIC ATB in combination ([4]; CKO UFR149, CLA @ 4 μg/mL) | MIC ([4]; strain CKO ROU, genotype TEM-1, SHV-12, CTX-M-15, OXA-1, OXA-48) | MIC ATB in combination ([5]; EAE UFR207, CLA @ 4 μg/mL)
>128 µg/mL: MIC ([1]; strain PMI UFR124, genotype CTX-M-2) | MIC ([1]; strain PMI UFR127, compound alone) | MIC ([1]; strain PMI UFR127, genotype VEB-1) | MIC ([1]; strain PMI UFR128, genotype VEB-1, OXA-10) | MIC ([1]; strain PMI UFR129, genotype TEM-1, VEB-6) | MIC ([1]; strain PMI UFR131, genotype CMY-16, OXA-1, OXA-10, NDM-1, ArmA) | MIC ATB in combination ([1]; strain PMI UFR131, with CLA @ 4 μg/mL) | MIC ([1]; strain PMI UFR132, genotype VEB-6, DHA-1, NDM-1, AphA6, AacA4) | MIC ATB in combination ([1]; strain PMI UFR132, with CLA @ 4 μg/mL) | MIC ([1]; strain PMI UFR237, genotype VEB-6) | MIC ([2]; strain PST UFR98, genotype TEM-1, CMY-6, OXA-1, NDM-1, RmtC) | MIC ATB in combination ([2]; strain PST UFR98, with CLA @ 4 μg/mL) | MIC ATB in combination ([5]; EAE 49469, CLA @ 4 μg/mL) | MIC ATB in combination ([5]; EAE 200261, CLA @ 4 μg/mL) | MIC ([5]; strain EAE 49469, genotype AmpC) | MIC ([5]; strain EAE 200261, genotype TEM-x, AmpC) | MIC ([5]; strain EAE UFR201, genotype TEM-1, SHV-12, CTX-M-15) | MIC ([5]; strain EAE UFR202, genotype TEM-24) | MIC ([5]; strain EAE UFR213, genotype TEM-24)
